The source made the active and inactive calls. The rule behind the calls is not given here.
Columns and labels:
[1] = biological target: T1, Fatty-acid amide hydrolase 1 (Homo sapiens) (UniProt O00519); assay: Ratio of Kinact to Ki for human FAAH by enzyme coupled assay
T1 sequence (whole entry): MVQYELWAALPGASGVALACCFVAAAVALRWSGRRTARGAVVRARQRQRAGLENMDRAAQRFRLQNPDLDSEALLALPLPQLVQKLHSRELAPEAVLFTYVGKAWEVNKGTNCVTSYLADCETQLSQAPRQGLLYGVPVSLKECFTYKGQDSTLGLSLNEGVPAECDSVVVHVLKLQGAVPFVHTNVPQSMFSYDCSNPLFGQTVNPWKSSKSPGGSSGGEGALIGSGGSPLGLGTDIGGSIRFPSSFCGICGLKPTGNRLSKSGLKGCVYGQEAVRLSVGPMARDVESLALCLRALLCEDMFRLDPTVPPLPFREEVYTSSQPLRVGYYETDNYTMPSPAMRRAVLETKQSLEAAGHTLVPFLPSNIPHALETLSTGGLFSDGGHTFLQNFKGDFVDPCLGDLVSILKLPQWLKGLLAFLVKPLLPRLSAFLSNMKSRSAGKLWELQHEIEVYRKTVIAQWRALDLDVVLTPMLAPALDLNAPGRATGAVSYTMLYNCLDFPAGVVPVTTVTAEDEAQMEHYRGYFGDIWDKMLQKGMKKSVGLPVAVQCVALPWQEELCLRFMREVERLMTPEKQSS

[2] = biological target: Voltage-gated inwardly rectifying potassium channel KCNH2 (Homo sapiens, UniProt Q12809); assay: Inhibition of human ERG
Rattus norvegicus = assay: Analgesic activity against complete Freund's adjuvant-induced pain in rat at 25 mg/kg, ip; assay type: functional, organism-based; parameters: dose 25 mg/kg

Voltage-gated inwardly rectifying potassium channel KCNH2, sequence (Q12809 whole entry): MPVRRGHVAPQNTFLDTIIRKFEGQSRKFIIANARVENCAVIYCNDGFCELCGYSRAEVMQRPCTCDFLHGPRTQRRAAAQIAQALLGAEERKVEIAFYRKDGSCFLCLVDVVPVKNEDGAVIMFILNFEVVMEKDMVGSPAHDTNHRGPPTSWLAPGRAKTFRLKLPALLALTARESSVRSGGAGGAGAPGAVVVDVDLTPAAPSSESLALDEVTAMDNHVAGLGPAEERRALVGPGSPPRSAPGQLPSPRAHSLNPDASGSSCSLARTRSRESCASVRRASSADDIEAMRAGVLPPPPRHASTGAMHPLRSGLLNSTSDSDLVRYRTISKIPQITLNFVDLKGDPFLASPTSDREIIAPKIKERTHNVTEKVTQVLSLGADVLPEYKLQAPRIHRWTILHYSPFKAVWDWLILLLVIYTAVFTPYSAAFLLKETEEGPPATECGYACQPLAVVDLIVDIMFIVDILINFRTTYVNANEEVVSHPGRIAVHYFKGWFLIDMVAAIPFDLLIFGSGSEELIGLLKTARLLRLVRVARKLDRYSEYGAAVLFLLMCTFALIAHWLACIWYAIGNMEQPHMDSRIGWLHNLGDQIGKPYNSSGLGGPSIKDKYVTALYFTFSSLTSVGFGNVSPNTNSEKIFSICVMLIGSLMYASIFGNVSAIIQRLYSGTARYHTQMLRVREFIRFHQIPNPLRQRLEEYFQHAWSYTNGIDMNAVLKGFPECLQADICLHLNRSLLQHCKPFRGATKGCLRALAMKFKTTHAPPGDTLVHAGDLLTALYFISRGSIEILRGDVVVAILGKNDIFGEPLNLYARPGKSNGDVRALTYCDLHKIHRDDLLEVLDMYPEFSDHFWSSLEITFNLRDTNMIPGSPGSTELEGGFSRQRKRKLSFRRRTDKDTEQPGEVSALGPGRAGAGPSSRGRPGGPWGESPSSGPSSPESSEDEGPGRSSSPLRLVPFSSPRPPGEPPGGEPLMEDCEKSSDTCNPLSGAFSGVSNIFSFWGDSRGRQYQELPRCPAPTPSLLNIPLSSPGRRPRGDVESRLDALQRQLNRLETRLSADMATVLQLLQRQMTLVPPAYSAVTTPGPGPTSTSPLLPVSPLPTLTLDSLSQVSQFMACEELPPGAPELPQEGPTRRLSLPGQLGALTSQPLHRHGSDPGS

SMILES	Ratio [1]	inhibition (INH) [2]	Activity (Rattus norvegicus)
O=C(Nc1cccnc1)N1CCC2(CC1)CC(Cc1cccc(Oc3ccc(C(F)(F)F)cn3)c1)CO2 (stereo not drawn)	846 M⁻¹ s⁻¹		
O=C(Nc1cccnn1)N1CCC2(CC1)C[C@H](c1cccc(Oc3ccc(C(F)(F)F)cn3)c1)CO2	3040 M⁻¹ s⁻¹	Active	
O=C(Nc1cccnn1)N1CCC2(CC1)CC(CCc1cccc(Oc3ccc(C(F)(F)F)cn3)c1)C2	344 M⁻¹ s⁻¹		
O=C(Nc1cccnc1)N1CCC2(CC1)CC(c1cccc(Oc3ccc(C(F)(F)F)cn3)c1)CO2 (stereo not drawn)	2080 M⁻¹ s⁻¹		
Cc1noc(NC(=O)N2CCC3(CC2)CC(c2cccc(Oc4ccc(C(F)(F)F)cn4)c2)C3)c1C	1760 M⁻¹ s⁻¹	Active	Active
O=C(Nc1cccnn1)N1CCC2(CC1)CC(Cc1cccc(Oc3ccc(C(F)(F)F)cn3)c1)C2	272 M⁻¹ s⁻¹		
O=C(Nc1cccnn1)N1CCC2(CCC(c3cccc(Oc4ccc(C(F)(F)F)cn4)c3)O2)CC1 (stereo not drawn)	229 M⁻¹ s⁻¹		
O=C(Nc1cccnn1)N1CCC2(CC1)CC(c1cccc(Oc3ccc(C(F)(F)F)cn3)c1)CO2 (racemic)	3130 M⁻¹ s⁻¹		
O=C(Nc1cccnn1)N1CCC2(CC1)C[C@@H](c1cccc(Oc3ccc(C(F)(F)F)cn3)c1)CO2	1340 M⁻¹ s⁻¹		
O=C(Nc1cccnn1)N1CCC2(CCC(c3cccc(Oc4ccc(C(F)(F)F)cn4)c3)C2)CC1 (stereo not drawn)	307 M⁻¹ s⁻¹		
Cc1noc(NC(=O)N2CCC3(CC2)CC(c2cccc(Oc4ccc(C(F)(F)F)cn4)c2)CO3)c1C (stereo not drawn)	515 M⁻¹ s⁻¹		
O=C(Nc1cccnn1)N1CCC2(CC1)CC(c1cccc(Oc3ccc(C(F)(F)F)cn3)c1)C2	1570 M⁻¹ s⁻¹	Active	
O=C(Nc1cccnn1)N1CCC2(CC1)CN(c1cccc(Oc3ccc(C(F)(F)F)cn3)c1)C2	18.3 M⁻¹ s⁻¹		
O=C(Nc1cccnc1)N1CCC2(CC1)CC(c1cccc(Oc3ccc(C(F)(F)F)cn3)c1)C2	914 M⁻¹ s⁻¹		
